# Laboratory results as given in patent US20180298405A1, “METHODS AND COMPOSITIONS TO INCREASE HUMAN SOMATIC CELL NUCLEAR TRANSFER (SCNT) EFFICIENCY BY REMOVING HISTONE H3-LYSINE TRIMETHYLATION, AND DERIVATION OF HUMAN NT-ESC” (CHILDREN'S MEDICAL CENTER CORPORATION, priority 2015, published 2018).
# System: reprogramming resistant regions (RRRs) / ZGA genes
# Test: RNA-seq of late 8-cell human SCNT embryos with or without KDM4A mRNA injection (ZGA of RRRs, KDM4A-responsive genes)
# Format: cell-based
# Settings: 8-cell embryos
# From the text: A sliding window (size 20 kb, step size 10 kb) was used to assess the genome-wide expression level of 4-cell and 8-cell human embryos. For each window, the expression level was quantified with normalized RPM (reads per millions of uniquely mapped reads). […] These activated regions were classed into three groups based on their expression differences in human SCNT and IVF 8-cell embryos.
# The SCNT embryos used for ZGA analysis were generated using oocytes donated by a single healthy person (#64) and dermal fibroblast cells from an AMD patient (DFB-8). SCNT and IVF embryos were cultured up to late 8-cell stage, when the compaction of blastomeres is initiated, then they were treated briefly with acid Tyrode solution to remove zona pellucida. To prepare for the 8-cell SCNT embryo, oocytes from a single oocyte donor, and skin fibroblast cells from a single somatic nuclear donor were used. All the procedures are the same as described in the “Human SCNT procedure and KMD4A mRNA injection” section. Only embryos that reached the late 8-cell stage synchronically 74 hours post activation were collected and used for this experiment.
# For preparation of the control IVF embryos, several donated early 8-cell stage IVF embryos were thawed and cultured for 5-7 hours to allow them to reach late 8-cell stage before being processed. After removal of the zona pellucida, the denuded embryos were washed 3 times in PBS, loaded into RNAse and DNAse free PCR tubes, spin downed, and snap frozen in liquid nitrogen. Then, they were kept at −80° C. until use. As controls, dermal fibroblast cells of somatic nuclear donors were also prepared. Those fibroblast cells were cultured in a 25 cm^2 flask in DMEM 10% FBS, and approximately 10,000 cells/donor were collected, snap frozen, and stored at −80° C. until use.
# Five 8-cell embryos for each group were directly lysed and used for cDNA synthesis using SMART-Seq v4 Ultra Low Input RNA Kit (Clontech). For MEF donor, 10 ng total RNA was used for cDNA synthesis using SMART-Seq v4 Ultra Low Input RNA Kit. After amplification, the cDNA samples were fragmented using Covaris sonicator M220 to an average size of 150 bp (Covaris). Sequencing libraries were made with the fragmented DNA using NEBNext Ultra DNA Library Prep Kit for Illumina according to manufacturer's instruction (New England Biolabs) with different barcodes. For each RNA-seq analysis of hESCs, 1 μg total RNA was used for mRNA purification. Barcoded RNA-seq libraries were generated using NEBNext Ultra Directional RNA Library Prep Kit for Illumina (New England Biolabs). Single end 50 bp sequencing was performed on a HiSeq 2500 sequencer (Illumina). Sequencing reads were mapped to the human genome (hg19) with Tophat2. All programs were performed with default settings (unless otherwise specified). At least 22 million uniquely mapped reads were obtained for each sequencing library, and subsequently assembled into transcripts guided by the reference annotation (Refseq gene models) with Cufflinks v2.0.2. Expression level of each gene was quantified with normalized FPKM (fragments per kilobase of exon per million mapped fragments). Statistical analyses were performed with R (available at: “www.r-project.org/”). Independent 2 group Wilcoxon rank sum tests were used to compare distributions using the wilcox.test function in R. Pearson's r coefficient was calculated using the cor function with default parameters. The hierarchical clustering analysis of the global gene expression pattern in different samples was carried out using heatmap.2 function (gplots package) in R.
substance,measurement,value
"KDM4A mRNA: in vitro transcribed mRNA of full length human KDM4A/JHDM3A cDNA, an H3K9me3 demethylase (SEQ ID NO: 1)",NDUFAF2 Fold Change (log2) [KDM4A SCNT/Control SCNT],1.16 log2
same,NMNAT1 Fold Change (log2) [KDM4A SCNT/Control SCNT],1.28 log2
same,NOC4L Fold Change (log2) [KDM4A SCNT/Control SCNT],1.15 log2
same,NOP58 Fold Change (log2) [KDM4A SCNT/Control SCNT],1.4 log2
same,NUDT9 Fold Change (log2) [KDM4A SCNT/Control SCNT],1.82 log2
same,PAGE5 Fold Change (log2) [KDM4A SCNT/Control SCNT],1.24 log2
same,PDCD11 Fold Change (log2) [KDM4A SCNT/Control SCNT],1.11 log2
same,PDE4DIP Fold Change (log2) [KDM4A SCNT/Control SCNT],1.79 log2
same,PHOSPHO1 Fold Change (log2) [KDM4A SCNT/Control SCNT],1.46 log2
same,PIK3R4 Fold Change (log2) [KDM4A SCNT/Control SCNT],1.58 log2
same,PLBD1 Fold Change (log2) [KDM4A SCNT/Control SCNT],1.69 log2
same,PLD2 Fold Change (log2) [KDM4A SCNT/Control SCNT],1.2 log2
same,PLVAP Fold Change (log2) [KDM4A SCNT/Control SCNT],1.63 log2
same,POLR3K Fold Change (log2) [KDM4A SCNT/Control SCNT],1.34 log2
same,POTEM Fold Change (log2) [KDM4A SCNT/Control SCNT],1.56 log2
same,PPM1N Fold Change (log2) [KDM4A SCNT/Control SCNT],1.68 log2
same,PPP2CB Fold Change (log2) [KDM4A SCNT/Control SCNT],2.17 log2
same,PRAMEF3 Fold Change (log2) [KDM4A SCNT/Control SCNT],2.4 log2
same,PRAMEF4 Fold Change (log2) [KDM4A SCNT/Control SCNT],1.02 log2
same,PRAMEF6 Fold Change (log2) [KDM4A SCNT/Control SCNT],1.08 log2
same,PRAMEF10 Fold Change (log2) [KDM4A SCNT/Control SCNT],1.05 log2
same,PRAMEF11 Fold Change (log2) [KDM4A SCNT/Control SCNT],1.31 log2
same,PRAMEF17 Fold Change (log2) [KDM4A SCNT/Control SCNT],1.44 log2
same,PRPF39 Fold Change (log2) [KDM4A SCNT/Control SCNT],1.4 log2
same,PTPN22 Fold Change (log2) [KDM4A SCNT/Control SCNT],2.57 log2
same,RAB9A Fold Change (log2) [KDM4A SCNT/Control SCNT],1.39 log2
same,RASA2 Fold Change (log2) [KDM4A SCNT/Control SCNT],1.36 log2
same,RFK Fold Change (log2) [KDM4A SCNT/Control SCNT],1.29 log2
same,RNU11 Fold Change (log2) [KDM4A SCNT/Control SCNT],5.27 log2
same,RP2 Fold Change (log2) [KDM4A SCNT/Control SCNT],1.82 log2
same,RPF2 Fold Change (log2) [KDM4A SCNT/Control SCNT],1.46 log2
same,RPS6KB2 Fold Change (log2) [KDM4A SCNT/Control SCNT],1.81 log2
same,SAMD8 Fold Change (log2) [KDM4A SCNT/Control SCNT],1.14 log2
same,SCO1 Fold Change (log2) [KDM4A SCNT/Control SCNT],1.15 log2
same,SEPX1 Fold Change (log2) [KDM4A SCNT/Control SCNT],1.36 log2
same,SERTAD1 Fold Change (log2) [KDM4A SCNT/Control SCNT],1.12 log2
same,SFTPD Fold Change (log2) [KDM4A SCNT/Control SCNT],2.45 log2
same,SGCG Fold Change (log2) [KDM4A SCNT/Control SCNT],2.73 log2
same,SGPP1 Fold Change (log2) [KDM4A SCNT/Control SCNT],1.41 log2
same,SHFM1 Fold Change (log2) [KDM4A SCNT/Control SCNT],1.73 log2
same,SIAH1 Fold Change (log2) [KDM4A SCNT/Control SCNT],1.7 log2
same,SNAPC1 Fold Change (log2) [KDM4A SCNT/Control SCNT],1.71 log2
same,SNAR-C3 Fold Change (log2) [KDM4A SCNT/Control SCNT],1.85 log2
same,SNAR-E Fold Change (log2) [KDM4A SCNT/Control SCNT],1.72 log2
same,SNHG9 Fold Change (log2) [KDM4A SCNT/Control SCNT],1.3 log2
same,SNHG12 Fold Change (log2) [KDM4A SCNT/Control SCNT],1.42 log2
same,SPINK7 Fold Change (log2) [KDM4A SCNT/Control SCNT],5.38 log2
same,SRA1 Fold Change (log2) [KDM4A SCNT/Control SCNT],1.23 log2
same,SSX3 Fold Change (log2) [KDM4A SCNT/Control SCNT],1.1 log2
same,STAG3L2 Fold Change (log2) [KDM4A SCNT/Control SCNT],1.35 log2
same,STAG3L4 Fold Change (log2) [KDM4A SCNT/Control SCNT],1.17 log2
same,STAP2 Fold Change (log2) [KDM4A SCNT/Control SCNT],1.25 log2
same,SUZ12P Fold Change (log2) [KDM4A SCNT/Control SCNT],1.68 log2
same,TAC1 Fold Change (log2) [KDM4A SCNT/Control SCNT],1.38 log2
same,TCEANC2 Fold Change (log2) [KDM4A SCNT/Control SCNT],1.13 log2
same,TCN2 Fold Change (log2) [KDM4A SCNT/Control SCNT],1.4 log2
same,TEN1 Fold Change (log2) [KDM4A SCNT/Control SCNT],1.66 log2
same,THOC5 Fold Change (log2) [KDM4A SCNT/Control SCNT],1.46 log2
same,TIMM10 Fold Change (log2) [KDM4A SCNT/Control SCNT],1.41 log2
same,TMEM41B Fold Change (log2) [KDM4A SCNT/Control SCNT],1.14 log2
same,TMEM92 Fold Change (log2) [KDM4A SCNT/Control SCNT],1.42 log2
same,TMEM159 Fold Change (log2) [KDM4A SCNT/Control SCNT],1.17 log2
same,TRIM39-RPP21 Fold Change (log2) [KDM4A SCNT/Control SCNT],1.09 log2
same,TRIML2 Fold Change (log2) [KDM4A SCNT/Control SCNT],1.55 log2
same,TSEN34 Fold Change (log2) [KDM4A SCNT/Control SCNT],1.28 log2
same,TTC27 Fold Change (log2) [KDM4A SCNT/Control SCNT],1.72 log2
same,TTC28-AS1 Fold Change (log2) [KDM4A SCNT/Control SCNT],1.74 log2
same,UBTFL1 Fold Change (log2) [KDM4A SCNT/Control SCNT],1.8 log2
same,UTP3 Fold Change (log2) [KDM4A SCNT/Control SCNT],1.08 log2
same,UTP23 Fold Change (log2) [KDM4A SCNT/Control SCNT],1.35 log2
same,UTS2 Fold Change (log2) [KDM4A SCNT/Control SCNT],1.28 log2
same,VAMP1 Fold Change (log2) [KDM4A SCNT/Control SCNT],2.23 log2
same,VCX2 Fold Change (log2) [KDM4A SCNT/Control SCNT],1.77 log2
same,VCX Fold Change (log2) [KDM4A SCNT/Control SCNT],1.72 log2
same,VPS54 Fold Change (log2) [KDM4A SCNT/Control SCNT],2.28 log2
same,WDR77 Fold Change (log2) [KDM4A SCNT/Control SCNT],1.18 log2
same,XAGE5 Fold Change (log2) [KDM4A SCNT/Control SCNT],1.07 log2
same,ZCCHC10 Fold Change (log2) [KDM4A SCNT/Control SCNT],1.22 log2
same,ZFYVE19 Fold Change (log2) [KDM4A SCNT/Control SCNT],1.49 log2
same,ZNF92 Fold Change (log2) [KDM4A SCNT/Control SCNT],1.03 log2
same,ZNF100 Fold Change (log2) [KDM4A SCNT/Control SCNT],2.53 log2
same,ZNF174 Fold Change (log2) [KDM4A SCNT/Control SCNT],1.24 log2
same,ZNF208 Fold Change (log2) [KDM4A SCNT/Control SCNT],1.57 log2
same,ZNF254 Fold Change (log2) [KDM4A SCNT/Control SCNT],1.37 log2
same,ZNF273 Fold Change (log2) [KDM4A SCNT/Control SCNT],1.11 log2
same,ZNF280A Fold Change (log2) [KDM4A SCNT/Control SCNT],1.34 log2
same,ZNF326 Fold Change (log2) [KDM4A SCNT/Control SCNT],1.37 log2
same,ZNF345 Fold Change (log2) [KDM4A SCNT/Control SCNT],1.46 log2
same,ZNF486 Fold Change (log2) [KDM4A SCNT/Control SCNT],1.74 log2
same,ZNF487P Fold Change (log2) [KDM4A SCNT/Control SCNT],1.2 log2
same,ZNF625-ZNF20 Fold Change (log2) [KDM4A SCNT/Control SCNT],2.32 log2
same,ZNF625 Fold Change (log2) [KDM4A SCNT/Control SCNT],1.87 log2
same,ZNF669 Fold Change (log2) [KDM4A SCNT/Control SCNT],1.08 log2
same,ZNF675 Fold Change (log2) [KDM4A SCNT/Control SCNT],1.87 log2
same,ZNF676 Fold Change (log2) [KDM4A SCNT/Control SCNT],1.29 log2
same,ZNF679 Fold Change (log2) [KDM4A SCNT/Control SCNT],2.13 log2
same,ZNF680 Fold Change (log2) [KDM4A SCNT/Control SCNT],1.18 log2
same,ZNF684 Fold Change (log2) [KDM4A SCNT/Control SCNT],1.53 log2
same,ZNF700 Fold Change (log2) [KDM4A SCNT/Control SCNT],1.49 log2
same,ZNF724P Fold Change (log2) [KDM4A SCNT/Control SCNT],1.04 log2
same,ZNF729 Fold Change (log2) [KDM4A SCNT/Control SCNT],1.75 log2
same,ZNF735 Fold Change (log2) [KDM4A SCNT/Control SCNT],1.24 log2
same,ZNF789 Fold Change (log2) [KDM4A SCNT/Control SCNT],1.28 log2
same,ZNF791 Fold Change (log2) [KDM4A SCNT/Control SCNT],1.38 log2
